molecular target: Alpha-glucosidase MAL12 (Saccharomyces cerevisiae (strain ATCC 204508 / S288c), UniProt P53341); experiment: Baker's Yeast α-Glucosidase Inhibition Assay; conditions: pH 6.8; 37 °C
Method: The enzyme inhibition was evaluated according to the method previously reported by Zawawi et al. [Zawawi et al., Bioorg. Chem., 23:3119] with slight modification. Various concentration of test compounds (10 μL) were dissolved in DMSO (ranging from 200 to 6.25 μg/mL) and premixed with 95 μL of 50 mM phosphate buffer (pH 6.8). Then, 25 μL of enzyme (0.0625 U/mL) in phosphate buffer saline was added into each well and the plate was incubated at 37 °C for 10 min. Afterward, 25 μl of PNPG in phosphate buffer saline (5 mM) were added and pre-read of the plate was taken by using a microplate reader (Spectrostar Nano BMG Labtech, Germany). The reaction mixture was then incubated at 37 °C for 30 min and change in absorbance at 405 nm was monitored up to 30 min. For negative control, the test samples were replaced with 10 μL of DMSO and acarbose was used as positive control. All experiments were triplicated and the results were expressed as the mean ± S.E.M of three determinations.

Chain of Alpha-glucosidase MAL12 (P53341 whole entry): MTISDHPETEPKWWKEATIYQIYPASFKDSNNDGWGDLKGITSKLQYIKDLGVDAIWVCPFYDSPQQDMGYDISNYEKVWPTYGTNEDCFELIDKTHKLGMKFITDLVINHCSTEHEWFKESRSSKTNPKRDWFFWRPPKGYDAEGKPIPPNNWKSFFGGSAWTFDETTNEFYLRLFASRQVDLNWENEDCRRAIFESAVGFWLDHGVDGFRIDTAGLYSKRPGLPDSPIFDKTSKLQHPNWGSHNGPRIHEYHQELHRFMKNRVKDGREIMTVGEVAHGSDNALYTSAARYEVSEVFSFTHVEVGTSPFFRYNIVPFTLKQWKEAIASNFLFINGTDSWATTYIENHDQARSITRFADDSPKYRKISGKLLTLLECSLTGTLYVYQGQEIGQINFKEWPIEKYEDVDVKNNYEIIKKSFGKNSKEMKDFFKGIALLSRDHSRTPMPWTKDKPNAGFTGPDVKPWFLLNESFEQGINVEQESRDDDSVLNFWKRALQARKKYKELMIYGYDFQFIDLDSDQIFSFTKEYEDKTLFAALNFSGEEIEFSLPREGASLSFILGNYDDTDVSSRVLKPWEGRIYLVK

SMILES | IC50 [µM]
COc1ccc(NC(=S)NNC(=O)c2ccc(-c3nc4cc(C)c(C)cc4[nH]3)cc2)cc1 [2-(4-(5,6-Dimethyl-1H-benzo[d]imidazol-2-yl)benzoyl)-N-(4-methoxyphenyl)hydrazinecarbothioamide (13)] | 305
Cc1cc2nc(-c3ccc(C(=O)NNC(=S)Nc4ccc([N+](=O)[O-])cc4)cc3)[nH]c2cc1C [2-(4-(5,6-Dimethyl-1H-benzo[d]imidazol-2-yl)benzoyl)-N-(4-nitrophenyl)hydrazinecarbothioamide (14)] | 35.8
Cc1cc2nc(-c3ccc(C(=O)NNC(=S)Nc4ccccc4Br)cc3)[nH]c2cc1C [N-(2-bromophenyl)-2-(4-(5,6-dimethyl-1H-benzo[d]imidazol-2-yl)benzoyl)hydrazinecarbothioamide (1)] | 129
Cc1cc2nc(-c3ccc(C(=O)NNC(=S)Nc4cccc(F)c4)cc3)[nH]c2cc1C [2-(4-(5,6-Dimethyl-1H-benzo[d]imidazol-2-yl)benzoyl)-N-(3-fluorophenyl)hydrazinecarbothioamide (7)] | 247
COc1ccccc1NC(=S)NNC(=O)c1ccc(-c2nc3cc(C)c(C)cc3[nH]2)cc1 [2-(4-(5,6-Dimethyl-1H-benzo[d]imidazol-2-yl)benzoyl)-N-(2-methoxyphenyl)hydrazinecarbothioamide (4)] | 346
COc1cccc(NC(=S)NNC(=O)c2ccc(-c3nc4cc(C)c(C)cc4[nH]3)cc2)c1 [2-(4-(5,6-Dimethyl-1H-benzo[d]imidazol-2-yl)benzoyl)-N-(3-methoxyphenyl)hydrazinecarbothioamide (8)] | 71.8
Cc1cc2nc(-c3ccc(C(=O)NNC(=S)Nc4ccc(F)cc4)cc3)[nH]c2cc1C [2-(4-(5,6-Dimethyl-1H-benzo[d]imidazol-2-yl)benzoyl)-N-(4-fluorophenyl)hydrazinecarbothioamide (12)] | 277
Cc1cc2nc(-c3ccc(C(=O)NNC(=S)Nc4cccc([N+](=O)[O-])c4)cc3)[nH]c2cc1C [2-(4-(5,6-Dimethyl-1H-benzo[d]imidazol-2-yl)benzoyl)-N-(3-nitrophenyl)hydrazinecarbothioamide (9)] | 117
Cc1cc2nc(-c3ccc(C(=O)NNC(=S)Nc4ccccc4F)cc3)[nH]c2cc1C [2-(4-(5,6-dimethyl-1H-benzo[d]imidazol-2-yl)benzoyl)-N-(2-fluorophenyl)hydrazinecarbothioamide (3)] | 231
Cc1cccc(NC(=S)NNC(=O)c2ccc(-c3nc4cc(C)c(C)cc4[nH]3)cc2)c1 [2-(4-(5,6-Dimethyl-1H-benzo[d]imidazol-2-yl)benzoyl)-N-(m-tolyl)hydrazinecarbothioamide (16)] | 219
Cc1ccc(NC(=S)NNC(=O)c2ccc(-c3nc4cc(C)c(C)cc4[nH]3)cc2)cc1 [2-(4-(5,6-Dimethyl-1H-benzo[d]imidazol-2-yl)benzoyl)-N-(p-tolyl)hydrazinecarbothioamide (17)] | 298
Cc1cc2nc(-c3ccc(C(=O)NNC(=S)Nc4ccc(C(F)(F)F)cc4)cc3)[nH]c2cc1C [2-(4-(5,6-Dimethyl-1H-benzo[d]imidazol-2-yl)benzoyl)-N-(4(trifluoromethyl)phenyl)hydrazinecarbothioamide (15)] | 163

Other lines, results leading:

IC50 [µM] | SMILES
61.9 | Cc1cc2nc(-c3ccc(C(=O)NNC(=S)Nc4ccc(Cl)c(Cl)c4)cc3)[nH]c2cc1C [N-(3,4-dichlorophenyl)-2-(4-(5,6-dimethyl-1H-benzo[d]imidazol-2-yl)benzoyl)hydrazinecarbothioamide (5)]
50.6 | Cc1cc2nc(-c3ccc(C(=O)NNC(=S)Nc4ccc(Br)cc4)cc3)[nH]c2cc1C [N-(4-bromophenyl)-2-(4-(5,6-dimethyl-1H-benzo[d]imidazol-2-yl)benzoyl)hydrazinecarbothioamide (10)]
284 | Cc1cc2nc(-c3ccc(C(=O)NNC(=S)Nc4ccccc4Cl)cc3)[nH]c2cc1C [N-(2-chlorophenyl)-2-(4-(5,6-dimethyl-1H-benzo[d]imidazol-2-yl)benzoyl)hydrazinecarbothioamide (2)]
178 | Cc1cc2nc(-c3ccc(C(=O)NNC(=S)Nc4cccc(Br)c4)cc3)[nH]c2cc1C [N-(3-bromophenyl)-2-(4-(5,6-dimethyl-1H-benzo[d]imidazol-2-yl)benzoyl)hydrazinecarbothioamide (6)]
187 | Cc1cc2nc(-c3ccc(C(=O)NNC(=S)Nc4ccc(Cl)cc4)cc3)[nH]c2cc1C [N-(4-chlorophenyl)-2-(4-(5,6-dimethyl-1H-benzo[d]imidazol-2-yl)benzoyl)hydrazinecarbothioamide (11)]
